Tests used:
HCT116 = details: from U.S. Ser. No. 08/527,039; cited from earlier work
Lewis lung carcinoma = Lewis lung carcinoma model, lung metastases; assay type: in vivo, mouse
Protocol: The well-known Lewis lung carcinoma model was used as follows: cells were injected subcutaneously into the flanks of C57 BL/6 mice, which were assigned into control and treated groups containing ten animals per group. On day 8, the tumor was excised. The ketoaldehyde (200 mg/kg body weight) in 20% aqueous ethanol or drug vehicle (aqueous ethanol) was administered intraperitoneally on days 9, 11, 13, 15 and 19. On day 22, the animals were sacrificed and their lungs were removed. The lungs were weighed and the number of metastases determined by counting the nodules established in each lung.

LS174T colorectal tumor = experiment: Human xenograft tumor growth, SCID mice; assay type: in vivo, mouse; details: thrice-weekly dosing 40 mg/kg
K562 = details: from U.S. Ser. No. 08/527,039; cited from earlier work
[1] = tested on: NB4 acute promyelocytic leukemia; experiment: Inhibition of proliferation, fluorescence-based assay; assay type: cell-based; details: Homo sapiens, 10–175 μM, 72 hours, read-out: Relative Inhibition of Proliferation
Protocol: (§1) The effect of the ketoaldehyde upon the inhibition of cell proliferation in cultured cancer cells was determined using a conventional, fluorescence-based anti-proliferative assay and a flow cytometry method. The extent of apoptosis was determined for some cell lines as well.
(§2) The effect of different concentrations of the ketoaldehyde upon the proliferation of the SW480 colorectal and MCF-7 breast cancer cell lines as a function of time is provided in FIGS. 12 and 13, respectively. The inhibition of proliferation in individual cell lines is summarized in Table 10, which provides a relative ranking of the ketoaldehyde's IC50 for each cell line.

[2] = tested on: K562 chronic myelogenous leukemia; experiment: as above; assay type: cell-based; details: Homo sapiens, 10–175 μM, 72 hours, read-out: Relative Inhibition of Proliferation
Protocol: as §1, §2

IMR32 neuroblastoma = experiment: as above; assay type: cell-based; details: Homo sapiens, IMR-32, 10–175 μM, 72 hours, read-out: Relative Inhibition of Proliferation
Protocol: as §1, §2

HT29 colon cancer = experiment: as above; assay type: cell-based; details: Homo sapiens, HT-29, 10–175 μM, 72 hours, read-out: Relative Inhibition of Proliferation
Protocol: as §1, §2

HCT116 colon cancer = experiment: as above; assay type: cell-based; details: Homo sapiens, HCT-116, 10–175 μM, 72 hours, read-out: Relative Inhibition of Proliferation
Protocol: as §1, §2

IMR32 = details: from U.S. Ser. No. 08/527,039; cited from earlier work
[3] = tested on: MCF-7 human breast cancer tumor; experiment: Human xenograft tumor growth, nude mice; assay type: in vivo, mouse; details: 40 mg/kg body weight
From the text: […] […] While the MCF-7 cell line appears to be less susceptible to the ketoaldehyde than the SW480 cell line, it should be noted that the MCF-7-derived tumors grow more aggressively than those derived from SW480, which necessitated using 20-fold fewer MCF-7 cells to obtain an initially slower rate of tumor growth.

[4] = tested on: SW480 human colorectal tumor; experiment: Human xenograft tumor growth, nude mice; assay type: in vivo, mouse; details: 40 mg/kg body weight three times per week, FIG. 14
Protocol: FIG. 14 is a graph illustrating the inhibition of growth by the ketoaldehyde of a tumor derived from human colorectal cancer cells. Balb/c nude mice were inoculated subcutaneously in the flank with 5.0×10^6 cells of the SW-480 human colorectal adenocarcinoma cell line. There were 7 control animals and 7 animals in the treatment group. The administration schedule was 40 mg/kg of ketoaldehyde in 20% ethanol in saline given by intraperitoneal injection 3 times per week (Monday, Wednesday and Friday).
The ketoaldehyde provides a significant degree of tumor growth control for a period of more than 67 days in a nude mouse xenograft model of human colon cancer (human colon cancer cell line, SW480; see FIG. 14).

[5] = tested on: DA-3 mammary adenocarcinoma; details: over 28 days; from U.S. Ser. No. 08/527,039; cited from earlier work
[6] = tested on: LNCaP-FGC-10 prostate tumors; experiment: Human xenograft tumor growth, nude mice; assay type: in vivo, mouse
From the text: The ketoaldehyde is also active against human LNCaP-FGC-10 prostate tumors grown in nude mice.

NB4 = details: from U.S. Ser. No. 08/527,039; cited from earlier work
Pilot toxicity study = assay type: in vivo
Protocol: Significant inhibition of tumor growth has been obtained with doses of only 10–40 mg/kg body weight. Thus, the ketoaldehyde has a therapeutic index (400/(10–40)) of approximately 10 to 40.

[7] = tested on: SW480 colorectal adenocarcinoma; experiment: Inhibition of proliferation and apoptosis, flow cytometry; assay type: cell-based; details: Homo sapiens, 20–100 μM, 24, 48, 72 and 96 hours, read-out: Relative Inhibition of Proliferation
Protocol: as §1, §2

[8] = tested on: HCC 1143 breast carcinoma; experiment: as above; assay type: cell-based; details: Homo sapiens, HCC1143, 20–100 μM, 24, 48, 72 and 96 hours, read-out: Relative Inhibition of Proliferation
Protocol: as §1, §2

[9] = tested on: NCI-H23 non-small cell lung cancer; experiment: as above; assay type: cell-based; details: Homo sapiens, 20–100 μM, 24, 48, 72 and 96 hours, read-out: Relative Inhibition of Proliferation
Protocol: as §1, §2

[10] = tested on: D 341 medulloblastoma (brain); experiment: as above; assay type: cell-based; details: Homo sapiens, D341, 20–100 μM, 24, 48, 72 and 96 hours, read-out: Relative Inhibition of Proliferation
Protocol: as §1, §2

[11] = tested on: MCF-7 breast adenocarcinoma; experiment: as above; assay type: cell-based; details: Homo sapiens, MCF7, 20–100 μM, 24, 48, 72 and 96 hours, read-out: Relative Inhibition of Proliferation
Protocol: as §1, §2

[12] = tested on: SK-Mel malignant melanoma epidermal; experiment: as above; assay type: cell-based; details: Homo sapiens, 20–100 μM, 24, 48, 72 and 96 hours, read-out: Relative Inhibition of Proliferation
Protocol: as §1, §2

[13] = tested on: HL-60 acute promyelocytic leukemia; experiment: as above; assay type: cell-based; details: Homo sapiens, 20–100 μM, 24, 48, 72 and 96 hours, read-out: Relative Inhibition of Proliferation
Protocol: as §1, §2

CC(=O)C=CC=C(C)C=O [the ketoaldehyde, 2-methyl-6-oxo-2,4-heptadienal]
cytostatic effect (HCT116): cytostatic effect | Mean Lung Weight ± SEM (Lewis lung carcinoma; 200 mg/kg i.p. days 9, 11, 13, 15, 19, day 22, control 0.287 ± 0.013 g, 2-tail t-test 0.004): 0.229 ± 0.012 g | Mean No. Metastases ± SEM (Lewis lung carcinoma; 200 mg/kg i.p. days 9, 11, 13, 15, 19, day 22, control 28.0 ± 2.4, 2-tail t-test 0.01): 14.4 ± 4.1 | Difference in Mean Lung Weight, control minus treated (Lewis lung carcinoma; 200 mg/kg i.p., day 22): 0.058 g | Difference in Mean No. Metastases, control minus treated (Lewis lung carcinoma; 200 mg/kg i.p., day 22): 13.6 | reduction in the number of lung metastases (Lewis lung carcinoma; treated animals versus control): ~50% | tumor response (LS174T colorectal tumor): responded well | cytostatic effect (K562): cytostatic effect | IC50 [1]: ~100 µM | IC50 [2]: > 100 µM | IC50 (IMR32 neuroblastoma): ~50 µM | IC50 (HT29 colon cancer): ~100 µM | IC50 (HCT116 colon cancer): ~50 µM | cytostatic effect (IMR32): cytostatic effect | tumor response ([3]; daily dosing): improved response | tumor response ([3]; thrice-weekly dosing): responded | period of significant tumor growth control [4]: more than 67 days | tumor volume [5]: less than 50 % of the control | activity against tumors [6]: active | cytostatic effect (NB4): cytostatic effect | LD100 (Pilot toxicity study; mice, pilot toxicity study): approximately 400 mg/kg body weight | therapeutic index (400/(10–40)) (Pilot toxicity study; mouse, in vivo): 10–40 | toxicity at therapeutically functional doses (Pilot toxicity study; mouse, in vivo): No toxicity | IC50 [7]: ~50 µM | IC50 [8]: > 100 µM | IC50 [9]: ~50 µM | IC50 [10]: ~50 µM | IC50 [11]: ~50 µM | IC50 [12]: ~100 µM | IC50 [13]: ~50 µM
